Test results as given in ChEMBL document CHEMBL5653631, “A Potent and Selective ULK1 Inhibitor Suppresses Autophagy and Sensitizes Cancer Cells to Nutrient Stress” (iScience, 2018).

How the values were obtained:
[1] = target: Ephrin type-A receptor 7 (Homo sapiens) (UniProt Q15375); assay: Inhibition of human recombinant EphA7 at 40 nM related to control ULK1
[2] = target: Fibroblast growth factor receptor 4 (Homo sapiens) (UniProt P22455); assay: Inhibition of human recombinant FGFR4 at 40 nM in presence of ATP by radiometric assay relative to control
Fibroblast growth factor receptor 4 (Homo sapiens), sequence (P22455 22-802 limits assumed): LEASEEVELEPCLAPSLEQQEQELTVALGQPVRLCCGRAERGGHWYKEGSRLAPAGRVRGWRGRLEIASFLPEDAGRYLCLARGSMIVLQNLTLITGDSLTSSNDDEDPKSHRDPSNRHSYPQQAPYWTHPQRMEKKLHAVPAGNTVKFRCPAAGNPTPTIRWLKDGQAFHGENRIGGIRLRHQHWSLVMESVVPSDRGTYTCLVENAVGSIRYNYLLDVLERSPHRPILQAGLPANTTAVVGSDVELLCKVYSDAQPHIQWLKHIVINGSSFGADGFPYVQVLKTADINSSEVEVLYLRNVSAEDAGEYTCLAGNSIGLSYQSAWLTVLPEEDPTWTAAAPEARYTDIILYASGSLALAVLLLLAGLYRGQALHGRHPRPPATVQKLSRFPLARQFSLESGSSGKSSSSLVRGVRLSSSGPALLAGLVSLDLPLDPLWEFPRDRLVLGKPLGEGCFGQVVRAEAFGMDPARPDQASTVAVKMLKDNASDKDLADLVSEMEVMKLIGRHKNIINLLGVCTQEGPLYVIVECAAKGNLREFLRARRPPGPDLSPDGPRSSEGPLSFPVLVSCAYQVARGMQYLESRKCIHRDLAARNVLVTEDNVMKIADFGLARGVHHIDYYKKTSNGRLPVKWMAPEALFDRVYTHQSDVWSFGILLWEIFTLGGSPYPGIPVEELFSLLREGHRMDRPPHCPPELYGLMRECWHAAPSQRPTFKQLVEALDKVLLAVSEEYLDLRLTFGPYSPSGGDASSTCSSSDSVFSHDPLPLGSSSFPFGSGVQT

[3] = target: T1, Ephrin type-A receptor 3 (Homo sapiens) (UniProt P29320); assay: Inhibition of human recombinant EphA3 at 40 nM related to control ULK1
T1 sequence (whole entry): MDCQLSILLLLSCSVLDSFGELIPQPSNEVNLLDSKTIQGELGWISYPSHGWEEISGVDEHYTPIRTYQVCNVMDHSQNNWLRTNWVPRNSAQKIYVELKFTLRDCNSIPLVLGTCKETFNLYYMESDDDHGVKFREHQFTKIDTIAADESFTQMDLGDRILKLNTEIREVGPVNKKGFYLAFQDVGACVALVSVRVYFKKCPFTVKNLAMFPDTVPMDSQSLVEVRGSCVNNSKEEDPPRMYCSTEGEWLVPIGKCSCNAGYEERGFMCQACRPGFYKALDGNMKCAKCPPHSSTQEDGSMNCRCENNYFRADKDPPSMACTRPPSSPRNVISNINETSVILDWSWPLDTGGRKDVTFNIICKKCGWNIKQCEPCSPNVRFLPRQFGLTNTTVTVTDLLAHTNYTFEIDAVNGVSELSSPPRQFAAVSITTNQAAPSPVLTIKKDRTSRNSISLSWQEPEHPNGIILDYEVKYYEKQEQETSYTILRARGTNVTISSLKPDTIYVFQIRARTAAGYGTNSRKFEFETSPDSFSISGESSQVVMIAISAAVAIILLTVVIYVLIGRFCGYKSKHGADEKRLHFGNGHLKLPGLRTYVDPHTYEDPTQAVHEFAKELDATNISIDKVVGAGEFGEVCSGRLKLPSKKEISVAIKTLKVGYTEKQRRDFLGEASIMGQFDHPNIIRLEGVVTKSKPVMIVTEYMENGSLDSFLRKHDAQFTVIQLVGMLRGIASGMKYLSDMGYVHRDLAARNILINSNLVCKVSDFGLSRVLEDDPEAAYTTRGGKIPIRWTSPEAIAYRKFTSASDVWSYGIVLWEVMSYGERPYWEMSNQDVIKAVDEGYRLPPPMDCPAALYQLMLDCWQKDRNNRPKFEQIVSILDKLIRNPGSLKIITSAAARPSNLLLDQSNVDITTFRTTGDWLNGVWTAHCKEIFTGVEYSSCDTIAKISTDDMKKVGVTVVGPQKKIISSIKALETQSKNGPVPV

[4] = target: T2, Muscle, skeletal receptor tyrosine-protein kinase (Homo sapiens) (UniProt O15146); assay: Inhibition of human recombinant MUSK at 15 nM in presence of ATP by radiometric assay relative to control
T2 sequence (whole entry): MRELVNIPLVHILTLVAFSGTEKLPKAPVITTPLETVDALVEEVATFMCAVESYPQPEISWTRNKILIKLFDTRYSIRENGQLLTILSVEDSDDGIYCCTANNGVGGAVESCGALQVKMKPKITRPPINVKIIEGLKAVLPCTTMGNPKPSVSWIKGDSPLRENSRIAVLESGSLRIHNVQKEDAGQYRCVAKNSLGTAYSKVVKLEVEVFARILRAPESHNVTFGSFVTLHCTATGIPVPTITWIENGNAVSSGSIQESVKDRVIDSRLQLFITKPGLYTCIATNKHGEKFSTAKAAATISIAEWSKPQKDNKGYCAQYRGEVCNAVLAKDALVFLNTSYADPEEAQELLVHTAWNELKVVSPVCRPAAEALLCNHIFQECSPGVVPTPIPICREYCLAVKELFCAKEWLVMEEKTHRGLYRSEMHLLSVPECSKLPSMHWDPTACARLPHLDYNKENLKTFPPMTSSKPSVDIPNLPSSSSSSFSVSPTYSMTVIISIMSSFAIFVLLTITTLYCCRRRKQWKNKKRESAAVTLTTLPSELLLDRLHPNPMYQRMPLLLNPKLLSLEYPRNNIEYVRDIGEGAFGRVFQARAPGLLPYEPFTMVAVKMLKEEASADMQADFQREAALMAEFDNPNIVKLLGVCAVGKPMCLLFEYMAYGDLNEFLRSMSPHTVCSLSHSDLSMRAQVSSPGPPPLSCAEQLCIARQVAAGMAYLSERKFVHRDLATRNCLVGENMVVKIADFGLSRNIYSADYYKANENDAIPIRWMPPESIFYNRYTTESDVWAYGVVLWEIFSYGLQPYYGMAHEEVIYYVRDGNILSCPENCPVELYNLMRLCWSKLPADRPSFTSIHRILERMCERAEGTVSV

Homo sapiens = species on record: Homo sapiens; assay: Inhibition of human recombinant p70S6K at 15 nM in presence of ATP by radiometric assay relative to control
[5] = target: Mitogen-activated protein kinase kinase kinase 10 (Homo sapiens) (UniProt Q02779); assay: Inhibition of human recombinant MLK2 at 500 nM in presence of ATP by radiometric assay relative to control
[6] = target: Proto-oncogene tyrosine-protein kinase receptor Ret (Homo sapiens) (UniProt P07949); assay: Inhibition of human recombinant RET at 500 nM in presence of ATP by radiometric assay relative to control
Proto-oncogene tyrosine-protein kinase receptor Ret (Homo sapiens), sequence (P07949 whole entry): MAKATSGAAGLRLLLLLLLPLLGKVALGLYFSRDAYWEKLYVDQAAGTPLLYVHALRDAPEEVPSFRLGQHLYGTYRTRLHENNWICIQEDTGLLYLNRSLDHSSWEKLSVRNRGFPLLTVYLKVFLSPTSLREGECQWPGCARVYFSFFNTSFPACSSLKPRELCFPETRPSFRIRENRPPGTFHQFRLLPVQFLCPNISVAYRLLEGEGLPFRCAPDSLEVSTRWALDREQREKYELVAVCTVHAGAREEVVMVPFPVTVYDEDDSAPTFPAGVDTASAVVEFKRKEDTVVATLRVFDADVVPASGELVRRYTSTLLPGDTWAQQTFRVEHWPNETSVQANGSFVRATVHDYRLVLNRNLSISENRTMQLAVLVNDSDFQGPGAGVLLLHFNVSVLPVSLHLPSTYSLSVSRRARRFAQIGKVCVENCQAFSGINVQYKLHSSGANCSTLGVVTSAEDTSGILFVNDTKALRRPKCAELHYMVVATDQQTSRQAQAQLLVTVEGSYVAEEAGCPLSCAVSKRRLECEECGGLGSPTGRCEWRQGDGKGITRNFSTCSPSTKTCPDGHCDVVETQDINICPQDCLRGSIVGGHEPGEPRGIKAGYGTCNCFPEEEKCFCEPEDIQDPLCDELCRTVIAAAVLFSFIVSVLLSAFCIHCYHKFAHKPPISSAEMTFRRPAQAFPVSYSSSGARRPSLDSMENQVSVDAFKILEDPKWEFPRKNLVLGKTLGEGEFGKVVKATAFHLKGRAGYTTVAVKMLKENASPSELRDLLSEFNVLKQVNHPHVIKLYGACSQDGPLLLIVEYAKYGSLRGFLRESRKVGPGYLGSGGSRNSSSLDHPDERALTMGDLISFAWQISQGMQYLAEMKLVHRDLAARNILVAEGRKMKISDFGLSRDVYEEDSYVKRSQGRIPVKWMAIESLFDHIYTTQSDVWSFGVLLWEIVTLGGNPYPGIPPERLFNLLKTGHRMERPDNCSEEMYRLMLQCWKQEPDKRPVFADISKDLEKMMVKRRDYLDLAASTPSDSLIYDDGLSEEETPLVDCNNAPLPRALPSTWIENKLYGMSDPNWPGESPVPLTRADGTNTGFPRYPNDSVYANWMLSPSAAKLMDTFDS

[7] = target: Serine/threonine-protein kinase pim-3 (Homo sapiens) (UniProt Q86V86); assay: Inhibition of human recombinant PIM3 at 500 nM related to control ULK1
[8] = target: Interferon-induced, double-stranded RNA-activated protein kinase (Homo sapiens) (UniProt P19525); assay: Inhibition of human recombinant PKR at 500 nM related to control ULK1
Interferon-induced, double-stranded RNA-activated protein kinase (Homo sapiens), sequence (P19525 whole entry): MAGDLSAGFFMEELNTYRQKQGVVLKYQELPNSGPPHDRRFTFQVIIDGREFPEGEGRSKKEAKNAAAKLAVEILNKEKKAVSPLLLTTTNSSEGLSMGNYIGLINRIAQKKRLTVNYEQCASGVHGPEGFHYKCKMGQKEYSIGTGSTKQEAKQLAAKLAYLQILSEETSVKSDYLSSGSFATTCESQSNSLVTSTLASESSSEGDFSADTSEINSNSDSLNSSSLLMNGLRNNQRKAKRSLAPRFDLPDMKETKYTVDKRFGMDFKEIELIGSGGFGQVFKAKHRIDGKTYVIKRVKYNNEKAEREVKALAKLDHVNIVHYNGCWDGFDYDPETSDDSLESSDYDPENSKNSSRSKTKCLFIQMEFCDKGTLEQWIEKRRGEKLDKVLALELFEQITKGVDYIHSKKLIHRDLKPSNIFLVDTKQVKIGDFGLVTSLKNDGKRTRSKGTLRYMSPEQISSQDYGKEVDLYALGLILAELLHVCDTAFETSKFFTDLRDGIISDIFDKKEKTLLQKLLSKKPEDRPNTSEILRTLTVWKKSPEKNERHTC

[9] = target: MAP kinase-activated protein kinase 2 (Homo sapiens) (UniProt P49137); assay: Inhibition of human recombinant MAPKAPK2 at 500 nM in presence of ATP by radiometric assay relative to control
MAP kinase-activated protein kinase 2 (Homo sapiens), sequence (P49137 whole entry, looked up): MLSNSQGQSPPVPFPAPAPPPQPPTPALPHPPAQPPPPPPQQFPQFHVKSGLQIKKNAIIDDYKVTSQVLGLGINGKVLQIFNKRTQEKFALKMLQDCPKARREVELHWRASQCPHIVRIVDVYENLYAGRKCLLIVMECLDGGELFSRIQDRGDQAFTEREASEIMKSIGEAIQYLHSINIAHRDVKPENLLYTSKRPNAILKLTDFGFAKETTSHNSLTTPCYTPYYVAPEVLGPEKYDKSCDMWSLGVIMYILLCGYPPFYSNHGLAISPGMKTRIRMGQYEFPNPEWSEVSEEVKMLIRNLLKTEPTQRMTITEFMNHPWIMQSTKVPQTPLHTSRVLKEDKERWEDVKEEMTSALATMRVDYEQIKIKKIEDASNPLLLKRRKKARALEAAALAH

[10] = target: Tyrosine-protein kinase HCK (Homo sapiens) (UniProt P08631); assay: Inhibition of human recombinant HCK at 500 nM related to control ULK1
Tyrosine-protein kinase HCK (Homo sapiens), sequence (P08631 2-526 limits assumed): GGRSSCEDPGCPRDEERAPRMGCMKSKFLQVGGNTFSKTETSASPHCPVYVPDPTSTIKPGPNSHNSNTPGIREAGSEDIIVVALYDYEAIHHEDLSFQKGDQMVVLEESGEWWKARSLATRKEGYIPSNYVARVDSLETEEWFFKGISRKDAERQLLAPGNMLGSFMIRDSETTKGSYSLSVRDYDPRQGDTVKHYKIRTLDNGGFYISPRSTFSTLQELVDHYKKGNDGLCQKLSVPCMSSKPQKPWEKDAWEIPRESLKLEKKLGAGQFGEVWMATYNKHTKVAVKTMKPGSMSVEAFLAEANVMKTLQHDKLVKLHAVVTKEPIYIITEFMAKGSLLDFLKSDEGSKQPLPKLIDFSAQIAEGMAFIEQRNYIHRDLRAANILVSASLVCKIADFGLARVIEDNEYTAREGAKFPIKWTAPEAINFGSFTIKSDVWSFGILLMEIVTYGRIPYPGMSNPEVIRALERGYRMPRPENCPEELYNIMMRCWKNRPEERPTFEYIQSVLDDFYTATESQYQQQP

Ephrin type-A receptor 7 (Homo sapiens), sequence (Q15375 28-998 limits assumed): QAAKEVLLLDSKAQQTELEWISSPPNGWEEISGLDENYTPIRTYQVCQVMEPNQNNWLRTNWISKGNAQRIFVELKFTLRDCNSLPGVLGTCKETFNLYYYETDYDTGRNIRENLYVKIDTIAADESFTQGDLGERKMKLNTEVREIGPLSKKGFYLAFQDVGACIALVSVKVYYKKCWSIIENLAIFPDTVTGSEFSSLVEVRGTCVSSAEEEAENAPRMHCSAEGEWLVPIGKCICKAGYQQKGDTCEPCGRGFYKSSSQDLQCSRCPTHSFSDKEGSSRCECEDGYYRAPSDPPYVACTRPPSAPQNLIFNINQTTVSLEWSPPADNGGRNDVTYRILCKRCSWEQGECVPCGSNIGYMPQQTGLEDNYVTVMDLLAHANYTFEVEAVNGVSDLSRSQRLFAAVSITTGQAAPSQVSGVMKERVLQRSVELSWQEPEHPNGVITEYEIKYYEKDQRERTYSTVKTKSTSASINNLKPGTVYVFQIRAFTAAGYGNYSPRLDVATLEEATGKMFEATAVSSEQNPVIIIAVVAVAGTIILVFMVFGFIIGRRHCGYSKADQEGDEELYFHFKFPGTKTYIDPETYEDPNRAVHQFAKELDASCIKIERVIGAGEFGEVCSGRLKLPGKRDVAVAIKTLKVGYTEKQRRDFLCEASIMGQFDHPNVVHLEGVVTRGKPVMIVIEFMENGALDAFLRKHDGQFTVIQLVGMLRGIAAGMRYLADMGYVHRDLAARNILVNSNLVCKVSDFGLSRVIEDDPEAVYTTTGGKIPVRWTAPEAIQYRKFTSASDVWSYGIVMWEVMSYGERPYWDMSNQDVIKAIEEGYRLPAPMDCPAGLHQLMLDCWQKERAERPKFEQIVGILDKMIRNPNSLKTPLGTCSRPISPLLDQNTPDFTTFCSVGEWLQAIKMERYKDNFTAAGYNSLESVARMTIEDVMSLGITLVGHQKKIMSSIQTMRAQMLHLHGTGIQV

Q: Which fold change (FC) [1] does the source give for `O=C(N[C@@H](C1CC1)C(F)(F)F)c1cc(-c2cnn3cc(-c4ccc(F)cc4)cnc23)cs1` here?
A: 0

Q: And the inhibition [2]?
A: 0%

Q: What about the fold change (FC) [3] of the same molecule?
A: 0.21

Q: How did the inhibition [4] turn out when `CC(C)[C@H](NC(=O)c1cc(-c2cnn3cc(-c4ccc(OCCN5CCCCC5)cc4)cnc23)cs1)C(F)(F)F` was run?
A: 0%

Q: What about the inhibition (Homo sapiens) of the same molecule?
A: 17%

Q: How did the inhibition [5] turn out when `CNC(=O)c1ccccc1Oc1nc(Nc2cc(OC)c(OC)c(OC)c2)ncc1Br` was run?
A: 70%

Q: What about the inhibition [6] of the same molecule?
A: 3%

Q: And the fold change (FC) [7]?
A: 0

Q: What about the fold change (FC) [8] of the same molecule?
A: 0.05

Q: And the inhibition [9]?
A: 0%

Q: What about the fold change (FC) [10] of the same molecule?
A: 0.23
